Columns and labels:
[1] = system: intracellular iNOS in RAW 264.7 cells; experiment: Raw Cell Nitrite Assay; type: cell-based; details: Mus musculus, RAW264.7, LPS-induced RAW 264.7 cells, 30 μM L-arginine, 1 h at 37° C.
Method: RAW 264.7 cells are plated to confluency on a 96-well tissue culture plate grown overnight (17 h) in the presence of LPS to induce NOS. A row of 3-6 wells were left untreated and served as controls for subtraction of nonspecific background. The media was removed from each well and the cells are washed twice with Krebs-Ringers-Hepes (25 mM, pH 7.4) with 2 mg/ml glucose. The cells are then placed on ice and incubated with 50 μL of buffer containing L-arginine (30 μM) +/- inhibitors for 1 h. The assay is initiated by warming the plate to 37° C. in a water bath for 1 h. Production of nitrite by intracellular iNOS is linear with time. To terminate the cellular assay, the plate of cells is placed on ice and the nitrite-containing buffer removed and analyzed for nitrite using a previously published fluorescent determination for nitrite. All values are the average of triplicate wells and are compared to a background-subtracted induced set of cells (100% value).

[2] = target: T1, Rat brain constitutive nitric oxide synthase (rnNOS) (Rattus norvegicus, UniProt P29476); experiment: Citrulline Assay for Nitric Oxide Synthase, rat brain constitutive NOS; type: biochemical; details: rat brain cNOS; 50 nM calmodulin, 30 μM L-arginine, 37° C., 15 minutes
T1 construct: an extract of rat cerebellum and partially purified by DEAE-Sepharose chromatography; from tissue; host or cells: rat cerebellum (extract, partially purified by DEAE-Sepharose)
Method: Nitric oxide synthase activity was measured by monitoring the conversion of [3H]-arginine to [3H]-citrulline. Mouse inducible nitric oxide synthase (miNOS) was prepared from an extract of LPS-treated RAW 264.7 cells and partially purified by DEAE-Sepharose chromatography. Rat brain constitutive nitric oxide synthase (rnNOS) was preparedfrom an extract of rat cerebellum and partially purified by DEAE-Sepharose chromatography. Enzyme and inhibitors were incubated at 37° C. for 15 minutes in a reaction volume of 100 μL with the following components added to start the reaction: 50 mM Tris (pH 7.6), 1 mg/ml bovine serum albumin, 1 mM DTT, 2 mM CaCl2, 10 μM FAD, 10 μM tetrahydrobiopterin, 30 μM L-arginine containing L-[2,3-3H]-arginine at 300 cpm/pmole and 1 mM NADPH. For constitutive NOS, 50 nM calmodulin was also added. The reaction was terminated by addition of cold stop buffer containing 10 mM EGTA, 100 mM HEPES, pH 5.5 and 1 mM citrulline. [3H]-Citrulline was separated by chromatography on Dowex 50W X-8 cation exchange resin and radioactivity determined with a liquid scintillation counter.

[3] = target: T2, Mouse inducible nitric oxide synthase (miNOS) (Mus musculus, UniProt P29477); experiment: Citrulline Assay for Nitric Oxide Synthase, mouse inducible NOS; type: biochemical; details: mouse iNOS; 30 μM L-arginine, 37° C., 15 minutes
T2 construct: was prepared from an extract of LPS-treated RAW 264.7 cells and partially purified by DEAE-Sepharose chromatography; endogenous in cells; host or cells: LPS-treated RAW 264.7 cells (extract, partially purified by DEAE-Sepharose)
T2 sequence (P29477 whole entry): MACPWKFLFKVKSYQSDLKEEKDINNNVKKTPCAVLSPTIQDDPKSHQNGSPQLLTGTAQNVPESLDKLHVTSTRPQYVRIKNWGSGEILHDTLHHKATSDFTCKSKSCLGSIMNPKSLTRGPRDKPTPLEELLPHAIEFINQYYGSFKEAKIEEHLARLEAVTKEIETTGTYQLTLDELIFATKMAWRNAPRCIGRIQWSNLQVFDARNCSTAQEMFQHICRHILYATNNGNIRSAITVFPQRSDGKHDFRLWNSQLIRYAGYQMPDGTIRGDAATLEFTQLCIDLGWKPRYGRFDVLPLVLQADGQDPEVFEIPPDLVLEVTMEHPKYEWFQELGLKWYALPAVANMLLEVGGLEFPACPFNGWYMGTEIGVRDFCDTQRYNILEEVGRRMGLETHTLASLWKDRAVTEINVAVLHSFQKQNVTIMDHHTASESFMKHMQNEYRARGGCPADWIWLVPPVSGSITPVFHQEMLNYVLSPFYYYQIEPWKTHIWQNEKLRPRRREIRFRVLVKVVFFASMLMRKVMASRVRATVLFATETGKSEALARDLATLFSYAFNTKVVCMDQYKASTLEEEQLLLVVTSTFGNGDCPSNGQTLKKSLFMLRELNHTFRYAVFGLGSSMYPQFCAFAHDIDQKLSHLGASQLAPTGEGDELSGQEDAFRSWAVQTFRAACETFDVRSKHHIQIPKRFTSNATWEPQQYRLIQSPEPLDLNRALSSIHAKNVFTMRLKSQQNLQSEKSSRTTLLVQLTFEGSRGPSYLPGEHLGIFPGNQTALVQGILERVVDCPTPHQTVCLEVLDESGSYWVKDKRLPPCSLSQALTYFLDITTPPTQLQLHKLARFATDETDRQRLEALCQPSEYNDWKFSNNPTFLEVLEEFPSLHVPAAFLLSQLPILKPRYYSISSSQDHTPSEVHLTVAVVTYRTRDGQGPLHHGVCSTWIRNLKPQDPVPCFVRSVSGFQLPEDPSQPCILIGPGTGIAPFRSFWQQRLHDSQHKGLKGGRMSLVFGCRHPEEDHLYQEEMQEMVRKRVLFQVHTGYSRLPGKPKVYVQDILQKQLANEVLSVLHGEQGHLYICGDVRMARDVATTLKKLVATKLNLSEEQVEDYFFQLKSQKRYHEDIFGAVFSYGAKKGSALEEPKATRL

Row | SMILES | IC50 [1] [µM] | IC50 [2] [µM] | IC50 [3] [µM]
1 | N=C(N)c1ccco1 [Example 9, 2-Amidinofuran] | 158 | 3 | 3
2 | N=C(N)C1CC1 [Example 2, Cyclopropylcarbamidine] | 46 | 10 | 2.3
3 | CC(C)C(=N)N [Example 3, Isopropylcarbamidine] | – | 31 | 27

Other lines, results leading:

Row | IC50 [1] [µM] | IC50 [2] [µM] | IC50 [3] [µM] | SMILES
4 | 60 | 7 | 2 | CSCC(=N)N [Example 11]
5 | – | 7.3 | 2 | CCCC(=N)N [Example 4, 1-Propylcarbamidine]
6 | 7 | 1.3 | 1 | N=C(N)c1cccs1 [Example 8, 2-Amidinothiophene]
7 | – | 44 | 16 | CCC(=N)N [Example 5, Ethylcarbamidine]
